# Measurements from patent US20170081698A1, “SURVIVAL ASSAYS FOR METAKARYOTIC STEM CELLS” (priority 2014, published 2017).
# “Also recorded” adds a separate entry of the source.
# What was measured:
# HT-29 cells [1] = test: Survival assay counting large colonies of HT-29 cells plated as single cells in T-flasks, with replating of surviving colonies; assay type: cell-based, human; details: for sensitivity of eukaryotic cells relative to metakaryotes to killing: cultures of cells derived from human tumors; for applicants' interpretation of selectivity (metakaryotic stem cells versus eukaryotic cells): HT-29 cell population; for nature of surviving colonies (metakaryotic cells, growth upon passaging): HT-29, appropriate concentrations and durations of exposure; for treatment level above which large colonies did not contain metakaryotic cells and did not grow further upon replating (mortal colonies): HT-29, concentration x duration of exposure; for stem cell number, by fraction of treated cells giving large, growing immortal colonies: HT-29 and CAPAN-1 lines; for exposure period required to assure killing greater than 99% of metakaryotic stem cells: HT-29 or CAPAN-1 cell cultures, certain concentrations; for number of immortal colonies: HT-29 cultures
# Source text: Large colonies visible to the eye and containing approximately 250 or more cells are enumerated manually or by an electronic colony counter adjusted to recognize colonies of these sizes.
# As a practical tactic, the total number of large colonies (>250 cells) are counted and the number appearing on […] to untreated plates identifies the treatment as having killed either or both colonies arising from eukaryotic non-stem cells or from metakaryotic stem cells.
# The assay, in one embodiment, involved plating single cells from an exponentially growing HT-29 cell culture in plastic T-flasks and counting the large colonies apparent five weeks after plating. Untreated control flasks provided the total number of immortal colonies and larger mortal colonies.
# HT-29 cells [2] = test: Microscopic cytology of bell shaped metakaryotic nuclei in treated HT-29 cells (Hoechst, DAPI, Feulgen staining); assay type: cell-based, human; details: for aspect of bell shaped nuclei of metakaryotic colonies at the end of treatment: HT-29 colony assay flasks; for condensation of chromatin in bell shaped metakaryotic nuclei: HT-29 cultures
# Capan-1 cells = test: Microscopic cytology of bell shaped metakaryotic nuclei in treated Capan-1 cells; details: Capan-1, equal to or greater than 10 micromolar for about one or more weeks
# [3] = HT-29, 10 micromolar for 24 hours beginning 24 hours after seeding
smiles,measurement,setting,value
O=C(O)CCCc1ccc(N(CCCl)CCCl)cc1 [chlorambucil],surviving large colonies,"HT-29 cells [1]; HT-29, ~3000 cells per flask, one day exposure, greater than ~10 micromolar",reduced the surviving large colonies monotonically to zero without displaying a plateau
same,sensitivity of eukaryotic cells relative to metakaryotes to killing,HT-29 cells [1],markedly more sensitive
CC[C@]1(O)C[C@@H]2CN(CCc3c([nH]c4ccccc34)[C@@](C(=O)OC)(c3cc4c(cc3OC)N(C)[C@H]3[C@@](O)(C(=O)OC)[C@H](OC(C)=O)[C@]5(CC)C=CCN6CC[C@]43[C@@H]65)C2)C1 [vinblastine],sensitivity of eukaryotic cells relative to metakaryotes to killing,HT-29 cells [1],markedly more sensitive
COc1cc2c(c(OC)c1OC)-c1ccc(OC)c(=O)cc1[C@@H](NC(C)=O)CC2 [colchicine],sensitivity of eukaryotic cells relative to metakaryotes to killing,HT-29 cells [1],markedly more sensitive
O=c1[nH]c(=O)n([C@H]2C[C@H](O)[C@@H](CO)O2)cc1C(F)(F)F [trifluorothymidine],effect on eukaryotic cells,HT-29 cells [1]; [3],kills nearly all eukaryotic cells
same,effect on survival of metakaryotic cells,HT-29 cells [1]; [3],no detectable effect
same,"nature of surviving large colonies (metakaryotic cells, growth upon replating)","HT-29 cells [1]; HT-29, 24 hour exposure, ~7 to 17 micromolar",immortal and displayed visible metakaryotic cells by the 64 cell colony forming stage; also recorded: contained metakaryotic cells and grew continuously upon replating; also recorded: contained metakaryotic cells upon microscopic inspection and demonstrated the ability to grow continuously upon passaging
same,applicants' interpretation of selectivity (metakaryotic stem cells versus eukaryotic cells),HT-29 cells [1],exterminated the eukaryotic cells in the HT-29 cell population studied but was not toxic to the metakaryotic stem cells
same,sensitivity of eukaryotic cells relative to metakaryotes to killing,HT-29 cells [1],markedly more sensitive
CN(C)C(=N)N=C(N)N [metformin],further growth of remaining colonies upon trypsinized transfer,"HT-29 cells [1]; HT-29, 100, 200 and 400 micromolar, five weeks",do not demonstrate further growth
same,"nature of surviving colonies (metakaryotic cells, growth upon passaging)",HT-29 cells [1],did not contain discernable metakaryotic cells nor were they capable of continued growth upon passaging
same,treatment level above which large colonies did not contain metakaryotic cells and did not grow further upon replating (mortal colonies),HT-29 cells [1],> 200 micromolar weeks
same,further decrease in total large colony count,"HT-29 cells [1]; HT-29, treatment range ~200 to 2000 micromolar weeks",No further significant decrease
same,reduction of the total number of large colonies,"HT-29 cells [1]; HT-29, ~1000 cells per flask, treatment levels from zero to ~100 micromolar weeks",about 10%
same,"stem cell number, by fraction of treated cells giving large, growing immortal colonies",HT-29 cells [1],reduction of stem cell number
same,exposure period required to assure killing greater than 99% of metakaryotic stem cells,HT-29 cells [1],not less than six
same,nuclear chromatin condensation in metakaryotic versus eukaryotic cell nuclei,HT-29 cells [2]; 200-2000 micromolar-weeks,metakaryotic but not eukaryotic cell nuclei display nuclear chromatin condensation
same,aspect of bell shaped nuclei of metakaryotic colonies at the end of treatment,HT-29 cells [2],displayed recognizable deformed aspects
C[C@H]1c2cccc(O)c2C(=O)C2=C(O)[C@]3(O)C(=O)C(C(N)=O)=C(O)[C@@H](N(C)C)[C@@H]3[C@@H](O)[C@@H]21 [doxycycline],treatment level above which large colonies did not contain metakaryotic cells and did not grow further upon replating (mortal colonies),HT-29 cells [1],higher than 4 micromolar weeks
same,reduction of the total number of large colonies,"HT-29 cells [1]; HT-29, two weeks beginning one day after transfer, zero to ~10 micromolar",about 8%
CC(=O)Nc1ccc(O)cc1 [acetaminophen],"nature of surviving colonies (metakaryotic cells, growth upon passaging)",HT-29 cells [1],did not contain discernable metakaryotic cells nor were they capable of continued growth upon passaging
same,treatment level above which large colonies did not contain metakaryotic cells and did not grow further upon replating (mortal colonies),HT-29 cells [1],higher than 10 micromolar weeks
same,reduction of the total number of large colonies,"HT-29 cells [1]; HT-29, two weeks beginning one day after transfer, ~5 to ~25 micromolar",about 10%
same,effect of higher concentrations on cells,"HT-29 cells [1]; HT-29, two weeks, concentrations higher than the range of the figure",killed all cells
same,"stem cell number, by fraction of treated cells giving large, growing immortal colonies",HT-29 cells [1],reduction of stem cell number
same,applicants' interpretation of selectivity (metakaryotic stem cells versus eukaryotic cells),HT-29 cells [1],exterminated the metakaryotic stem cells but were not cytotoxic to the eukaryotic non-stem cells
same,number of immortal colonies,HT-29 cells [1],reduce the number of immortal colonies
same,aspect of bell shaped nuclei of metakaryotic colonies at the end of treatment,HT-29 cells [2],did not display recognizable deformed pyknotic aspects
same,condensation of chromatin in bell shaped metakaryotic nuclei,HT-29 cells [2],do not induce the condensation of chromatin
CC(C)Cc1ccc(C(C)C(=O)O)cc1 (stereo not drawn) [ibuprofen],number of immortal colonies,HT-29 cells [1],reduce the number of immortal colonies
same,condensation of chromatin in bell shaped metakaryotic nuclei,HT-29 cells [2],do not induce the condensation of chromatin
Cc1ccc(-c2cc(C(F)(F)F)nn2-c2ccc(S(N)(=O)=O)cc2)cc1 [Celecoxib],treatment level above which large colonies did not contain metakaryotic cells and did not grow further upon replating (mortal colonies),HT-29 cells [1],higher than 10 micromolar weeks
same,reduction of the total number of large colonies,"HT-29 cells [1]; HT-29, two weeks beginning one day after transfer, ~2 to ~32 micromolar",about 10%
COc1ccc(CCN(C)CCCC(C#N)(c2ccc(OC)c(OC)c2)C(C)C)cc1OC (stereo not drawn) [verapamil],"nature of surviving colonies (metakaryotic cells, growth upon passaging)",HT-29 cells [1],did not contain discernable metakaryotic cells nor were they capable of continued growth upon passaging
same,"stem cell number, by fraction of treated cells giving large, growing immortal colonies",HT-29 cells [1],reduction of stem cell number
same,exposure period required to assure killing greater than 99% of metakaryotic stem cells,HT-29 cells [1],not less than six
same,nuclei of metakaryotic stem cells,Capan-1 cells,pyknotic nuclei
same,"fluorescent structures in the cytoplasmic organelle of metakaryotic cells (dsDNA dyes Hoechst, DAPI)","HT-29 cells [2]; HT-29, about one or more weeks of treatment","novel large bar structure; also recorded: bright blue fluorescent bars, crosses and more complex figures are observed"
same,chromatin in bell shaped nuclei after Feulgen staining,"HT-29 cells [2]; HT-29, e.g. 10 micromolar for about one or more weeks",condensed into rope like structures
same,pyknotic bell shaped nuclei with condensed chromatin,HT-29 cells [2]; HT-29 and CAPAN-1 cell cultures,dead (pyknotic) bell shaped metakaryotic cell nuclei; also recorded: pyknotic structures with bell shaped nuclei displaying grossly condensed chromatin structures
same,condensation of chromatin in bell shaped metakaryotic nuclei,HT-29 cells [2],observed
COc1ccc2cc([C@H](C)C(=O)O)ccc2c1 [naproxen],number of immortal colonies,HT-29 cells [1],reduce the number of immortal colonies
